How the values were obtained:
[1] = target: T1, isoprene synthase from Pueraria montana var. lobata (Pueraria montana var. lobata, UniProt Q6EJ97); assay: GC-MS confirmation of propylene produced from propan-2-yl diphosphate in the enzymatic reaction; format: biochemical; details: FIG. 3
T1 construct: 6xHis (N); made in house; host or cells: E. coli BL21(DE3), pET 25b(+)
T1 sequence (Q6EJ97 46-608): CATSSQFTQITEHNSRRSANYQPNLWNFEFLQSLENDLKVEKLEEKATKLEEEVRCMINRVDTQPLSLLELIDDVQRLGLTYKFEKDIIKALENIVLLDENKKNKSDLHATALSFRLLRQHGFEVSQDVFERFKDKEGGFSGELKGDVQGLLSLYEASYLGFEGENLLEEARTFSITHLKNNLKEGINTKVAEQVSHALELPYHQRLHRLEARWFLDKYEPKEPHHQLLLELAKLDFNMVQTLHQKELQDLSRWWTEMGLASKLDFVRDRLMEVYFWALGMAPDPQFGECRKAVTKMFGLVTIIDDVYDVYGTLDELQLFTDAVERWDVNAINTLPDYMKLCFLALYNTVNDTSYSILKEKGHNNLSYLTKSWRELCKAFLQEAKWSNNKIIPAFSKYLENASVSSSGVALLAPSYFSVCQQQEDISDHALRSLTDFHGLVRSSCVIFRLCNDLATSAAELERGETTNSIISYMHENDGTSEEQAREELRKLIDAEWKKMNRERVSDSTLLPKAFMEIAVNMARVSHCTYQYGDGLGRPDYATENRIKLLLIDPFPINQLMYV
Description: (§1) 5 mg of the terpene synthase was added to 0.5 ml of reaction mixture. An enzyme-free control reaction was carried out in parallel. Assays were incubated at 37° C. for 60 hours in a 1.5 ml sealed glass vial (Interchim) with shaking. One ml of the headspace phase was then collected and injected into a gas chromatograph Varian 430-GC equipped with a flame ionization detector (FID). Nitrogen was used as carrier gas with a flow rate of 1.5 mL/min. Volatile compounds were chromatographically separated on RT-Alumina Bond/Na2SO4 column (Restek) using an isothermal mode at 130° C. The enzymatic reaction product was identified by comparison with propylene standard (Sigma). Under these GC conditions, the retention time for propylene was 2.8 min. […] Gas chromatography-mass spectrometry (GC-MS) was then used to confirm the identity of the product detected by gas chromatography with flame ionization. The samples were analyzed on a Varian 3400 CX gas chromatograph equipped with Varian Saturn 3 mass selective detector. The mass spectrum of propylene obtained by enzymatic conversion of propan-2-yl diphosphate was similar to the one of commercial propylene (FIG. 3).

[2] = test system: purified terpene synthases; assay: Propylene production from propan-2-yl diphosphate with purified terpene synthases (headspace GC/FID); format: biochemical; details: 50 mM substrate, 5 mg terpene synthase in 0.5 ml, 37° C., 60 hours
Description: as §1, with “The enzymatic assays were carried out under the following conditions: 50 mM Tris-HCl pH 7.5 100 mM MgCl2 50 mM KCl 5 mM DTT 50 mM propan-2-yl diphosphate 5 mg” for “5 mg”

Substance: propan-2-yl diphosphate
- propylene produced from the substrate, identity confirmed by mass spectrum [1]: propylene produced
- propylene production from the substrate (enzymatic conversion) ([2]; pH 7.5): significant production of propylene
- propylene production from the substrate (enzymatic conversion) ([2]; pH 7.5, listed as propan-2-yl): able to convert propan-2-yl into propylene

— US9453244B2, “Method for producing a monoalkene by enzymatic conversion of an alkyl monoester” (Scientist of Fortune S.A., priority 2012, dated 2016)
